Experimental data reported in patent US20170064958A1, “Active compound combinations having insecticidal properties” (BAYER CROPSCIENCE AKTIENGESELLSCHAFT, priority 2014, published 2017).

Assays:
Type in all cases: in vivo
[1] = test system: two spotted spidermite (Tetranychus urticae); assay: Tetranychus urticae - spray test OP-resistant; conditions: single active ingredient, French bean leaf disks; for Efficacy in % after 2d: 0.8 g ai/ha, mortality after 2 d
Procedure: (§1) To produce a suitable preparation of active compound, 1 part by weight of active compound is mixed with the stated amount of solvents and is diluted with water, containing an emulsifier concentration of 1000 ppm, to the desired concentration. To produce a suitable preparation of a spore suspension the spores are diluted with emulsifier containing water to the desired concentration. Further test concentrations are prepared by dilution with emulsifier containing water.
French bean (Phaseolus vulgaris) leaf disks which are heavily infested with all stages of the two spotted spidermite (Tetranychus urticae), are sprayed with a preparation of the active ingredient of the desired concentration.
After the specified period of time, mortality in % is determined 100% means all spider mites have been killed and 0% means none of the spider mites have been killed. The mortality values determined thus are recalculated using the Colby-formula (see sheet 1).

[2] = test system: mustard beetle larvae (Phaedon cochleariae); assay: Phaedon cochleariae - spray test; conditions: single active ingredient, 0.16 g ai/ha, mortality after 6 d, Chinese cabbage leaf disks
Procedure: as §1
Chinese cabbage (Brassica pekinensis) leaf disks are sprayed with a preparation of the active ingredient of the desired concentration. Once dry, the leaf disks are infested with mustard beetle larvae (Phaedon cochleariae).
After the specified period of time, mortality in % is determined. 100% means all beetle larvae have been killed and 0% means none of the beetle larvae have been killed. The mortality values determined thus are recalculated using the Colby-formula (see sheet 1).

[3] = test system: green peach aphid (Myzus persicae); assay: Myzus persicae - spray test; conditions: single active ingredient, 0.8 g ai/ha, mortality after 1 d, Chinese cabbage leaf disks
Procedure: as §1
Chinese cabbage (Brassica pekinensis) leaf disks infected with all instars of the green peach aphid (Myzus persicae), are sprayed with a preparation of the active ingredient of the desired concentration.
After the specified period of time, mortality in % is determined 100% means all aphids have been killed; 0% means none of the aphids have been killed. The mortality values determined thus are recalculated using the Colby-formula (see sheet 1).

| SMILES | Efficacy in % after 2d [1] | Efficacy in % after 6d [2] | Efficacy in % after 6d ([1]; 0.16 g ai/ha, mortality after 6 d) | Efficacy in % after 1d [3] |
| --- | --- | --- | --- | --- |
| Cc1c(COC(=O)[C@@H]2[C@H](/C=C(\Cl)C(F)(F)F)C2(C)C)cccc1-c1ccccc1 (racemic) [Bifenthrin] | 0% |  |  |  |
| CC1(C)[C@H](C(=O)O[C@H](C#N)c2cccc(Oc3ccccc3)c2)[C@@H]1/C=C(\Cl)C(F)(F)F (racemic) [Lambda- Cyhalothrin, lambda-Cyhalothrin] |  | 33% |  |  |
| CC1(C)[C@H](C(=O)O[C@H](C#N)c2cccc(Oc3ccccc3)c2)[C@@H]1/C=C\C(=O)OC(C(F)(F)F)C(F)(F)F [Acrinathrin] | 0% |  | 0% | 70% |
| CC1(C)[C@H](C(=O)O[C@H](C#N)c2cccc(Oc3ccccc3)c2)[C@@H]1C=C(Br)Br [Deltamethrin] | 0% |  |  |  |
